Key:
KRAS-G12D = KRAS-G12D (Homo sapiens, UniProt P01116, G12D); test: SOS-catalyzed nucleotide exchange assay (Procedure A, TR-FRET), KRAS-G12D; assay type: biochemical; details: nucleotide exchange, read-out: KRAS G12D GNE IC50
Outline: (§1)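 Signal ratio (520/495 nm, excitation 340 nm) reports Bodipy-GDP retention on biotinylated RAS after SOS-catalyzed exchange with 3 mM GTP. SOS was 40 nM, except 160 nM for G12V. Room-temperature exchange lasted 60 min (90 min for G12V), following a 60 min compound preincubation.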

[1] = target: KRAS-G12C (C51S/C80L/C118S) (Homo sapiens, UniProt P01116, C118S/C51S/C80L/G12C); test: SOS-catalyzed nucleotide exchange assay (Procedure A, TR-FRET), KRAS-G12C; assay type: biochemical; details: nucleotide exchange, Procedure A; read-out: KRAS G12C GNE IC50
Sequence of KRAS-G12C (C51S/C80L/C118S) (P01116 with tags, fused parts or gaps isoform P01116-2 G12C/C51S/C80L/C118S): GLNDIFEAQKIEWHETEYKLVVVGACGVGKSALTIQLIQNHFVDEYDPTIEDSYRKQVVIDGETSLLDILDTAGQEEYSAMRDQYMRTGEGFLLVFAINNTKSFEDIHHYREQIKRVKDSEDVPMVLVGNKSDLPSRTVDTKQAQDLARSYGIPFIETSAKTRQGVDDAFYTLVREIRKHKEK
Outline: (§2)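 Inhibitors stabilizing the Bodipy-GDP state are detected as retained TR-FRET from a preformed biotinylated RAS/Tb-streptavidin complex. They are preincubated 60 min at room temperature, then human SOS and 3 mM GTP are added. G12V runs 90 min at 1.25 nM RAS/160 nM SOS. G12C (3 nM), WT (1 nM) and NRAS (1.25 nM) run 60 min with 40 nM SOS.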

SW620 cells = test: Cellular phospho-ERK assay, SW620 cells (homozygous KRAS-G12V); assay type: cell-based; details: Homo sapiens, SW-620, 2 hours compound incubation, read-out: SW620 pERK IC50
Outline: (§3)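 Readout: p-ERK/total ERK ratio measured by Alpha SureFire Ultra multiplex in lysates after 2 h compound exposure (37 °C, 5% CO2). Dosing ran 10 points, 1:3 dilutions, highest final concentration 30 μM. IC50 values derived by four-parameter logistic regression.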

PANC08.13 cells = test: Cellular phospho-ERK assay, PANC08.13 cells (homozygous KRAS-G12D); assay type: cell-based; details: Homo sapiens, PANC-08-13, 2 hours compound incubation, read-out: PANC-08.13 pERK IC50
Outline: as §3

KRAS-G13D = KRAS-G13D (Homo sapiens, UniProt P01116, G13D); test: SOS-catalyzed nucleotide exchange assay (Procedure A, TR-FRET), KRAS-G13D; assay type: biochemical; details: nucleotide exchange, Procedure A; read-out: KRAS G13D GNE IC50
Sequence of KRAS-G13D (P01116 with tags, fused parts or gaps isoform P01116-2 G13D): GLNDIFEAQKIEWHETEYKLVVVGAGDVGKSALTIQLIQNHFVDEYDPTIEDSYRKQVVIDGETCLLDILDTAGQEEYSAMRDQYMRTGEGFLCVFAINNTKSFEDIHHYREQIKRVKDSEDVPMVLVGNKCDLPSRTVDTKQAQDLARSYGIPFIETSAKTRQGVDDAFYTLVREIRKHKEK

KRAS-G12V = KRAS-G12V (Homo sapiens, UniProt P01116, G12V); test: SOS-catalyzed nucleotide exchange assay (Procedure A, TR-FRET), KRAS-G12V; assay type: biochemical; details: nucleotide exchange, read-out: KRAS G12V GNE IC50
Sequence of KRAS-G12V (P01116 with tags, fused parts or gaps isoform P01116-2 G12V): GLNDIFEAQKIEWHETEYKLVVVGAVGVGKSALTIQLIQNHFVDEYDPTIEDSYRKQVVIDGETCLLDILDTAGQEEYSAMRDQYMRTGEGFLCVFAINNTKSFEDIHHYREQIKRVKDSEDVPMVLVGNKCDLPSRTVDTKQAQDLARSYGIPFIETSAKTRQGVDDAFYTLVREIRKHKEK
Outline: as §2

NRAS = NRAS (Homo sapiens, UniProt P01111); test: SOS-catalyzed nucleotide exchange assay (Procedure A, TR-FRET), NRAS; assay type: biochemical; details: read-out: NRAS GNE IC50
Sequence of NRAS (P01111 with tags, fused parts or gaps): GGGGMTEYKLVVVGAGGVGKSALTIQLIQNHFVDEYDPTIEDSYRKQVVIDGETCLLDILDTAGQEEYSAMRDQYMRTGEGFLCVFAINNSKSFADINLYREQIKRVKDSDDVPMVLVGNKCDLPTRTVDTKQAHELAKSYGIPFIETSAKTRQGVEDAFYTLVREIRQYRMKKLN
Description: Procedure for SOS-Catalyzed Nucleotide Exchange Assay for KRAS-WT, G12C/D/V, G13D, HRAS, and NRAS (Procedure A)
Recombinant KRAS-G12C protein used in this assay has an additional triple mutation (C51S/C80L/C118S). Whereas KRAS-WT, G12D/V, G13D, HRAS and NRAS are in context of their WT protein sequence background. Specifically, the SOS-catalyzed nucleotide exchange assay utilizes a preformed TR-FRET complex containing a specific biotinylated RAS protein (KRAS-WT, G12C/V/D, G13D, HRAS, NRAS; described above) with Bodipy-GDP, and Terbium-streptavidin. Compounds are preincubated with this complex for 60 minutes. Subsequently, recombinant human SOS protein and unlabeled GTP are added to initiate the exchange reaction. Small molecule inhibitors stabilize the Bodipy-GDP complex whereas the untreated protein rapidly exchanges Bodipy-GDP for unlabeled GTP resulting in reduced TR-FRET signal.
To assemble the preformed TR-FRET complexes, each biotinylated RAS protein is diluted to 2 μM in an EDTA Buffer (20 mM HEPES pH 7.5, 50 mM sodium chloride, 10 mM EDTA, and 0.01% Tween) and incubated at room temperature for one hour. This mixture is then further diluted to 90 nM in an Assay Buffer (20 mM HEPES pH 7.5, 150 mM sodium chloride, 10 mM magnesium chloride, and 0.005% Tween) containing 15 nM of Terbium-Streptavidin (Invitrogen, catalog #PV3577) and 900 nM of Bodipy-GDP (Invitrogen, catalog #G22360) and incubated at room temperature for six hours. It should be noted that this preformed TR-FRET complex for each of the RAS protein were made ahead of time, aliquoted and stored at −80° C. until the day of the experiment.
Each test compound (10 mM stock in DMSO) is diluted in DMSO to make a final-10-point, 3-fold dilution and is acoustically dispensed into a 384-well assay plate (Corning, catalog #3820) using an Echo 550 (Labcyte). Each well of the assay plate receives 3 μL of a specific 3×RAS preformed TR-FRET complex and 3 μL of Assay Buffer and is incubated at room temperature for 60 minutes (preincubation time). Each well then receives 3 μL of 3×recombinant human SOS protein and GTP (Sigma, G8877) in Assay Buffer and is incubated at room temperature for 30 minutes (G13D), 60 minutes (KRAS WT/G12C/D, H/NRAS) or 90 minutes for G12V. […]
The time-resolved fluorescence resonance energy transfer (TR-FRET) signal is measured on an Envision (PerkinElmer) plate reader: Excitation filter=340 nm; emission 1=495 nm; emission2=520 nm; dichroic mirror=D400/D505; delay time=[…]. The signal of each well is determined as the ratio of the emission at 520 nm to that at 495 nm. Percent effect of each well is determined after normalization to control wells containing DMSO (no effect) or a saturating concentration of inhibitor (max effect). […]

HRAS = HRAS (Homo sapiens, UniProt P01112); test: SOS-catalyzed nucleotide exchange assay (Procedure A, TR-FRET), HRAS; assay type: biochemical; details: read-out: HRAS GNE IC50
Sequence of HRAS (P01112 with tags, fused parts or gaps): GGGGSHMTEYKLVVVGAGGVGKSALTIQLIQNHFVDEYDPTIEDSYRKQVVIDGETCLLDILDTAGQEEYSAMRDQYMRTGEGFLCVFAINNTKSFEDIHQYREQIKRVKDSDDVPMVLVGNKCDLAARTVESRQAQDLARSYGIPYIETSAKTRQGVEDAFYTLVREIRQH
Outline: as §1

KRAS-WT = KRAS-WT (Homo sapiens, UniProt P01116); test: SOS-catalyzed nucleotide exchange assay (Procedure A, TR-FRET), KRAS-WT; assay type: biochemical; details: nucleotide exchange, read-out: KRAS WT GNE IC50
Sequence of KRAS-WT (P01116 with tags, fused parts or gaps isoform P01116-2): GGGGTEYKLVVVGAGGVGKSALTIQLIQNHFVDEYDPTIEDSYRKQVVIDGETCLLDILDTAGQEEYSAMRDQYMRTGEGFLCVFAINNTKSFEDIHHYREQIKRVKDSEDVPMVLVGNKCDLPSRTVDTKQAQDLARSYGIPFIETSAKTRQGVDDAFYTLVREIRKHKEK
Outline: as §2

AsPC-1 cells = test: Cellular phospho-ERK assay, AsPC-1 cells (homozygous KRAS-G12D); assay type: cell-based; details: Homo sapiens, ASPC1, 2 h, 2 hours compound incubation, read-out: AsPC1 pERK IC50
Outline: as §3

MKN-1 cells = test: Cellular phospho-ERK assay, MKN-1 cells (amplified wild-type KRAS); assay type: cell-based; details: Homo sapiens, 2 hours compound incubation, read-out: MKN1 pERK IC50
Outline: as §3

Sequence of KRAS-G12D (P01116 with tags, fused parts or gaps isoform P01116-2 G12D): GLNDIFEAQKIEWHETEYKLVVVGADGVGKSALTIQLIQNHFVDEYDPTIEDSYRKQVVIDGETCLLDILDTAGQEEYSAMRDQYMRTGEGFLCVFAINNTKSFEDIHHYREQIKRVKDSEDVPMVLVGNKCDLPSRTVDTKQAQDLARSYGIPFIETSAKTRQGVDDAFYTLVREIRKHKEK

Row | IC50 (KRAS-G12D) [nM] | IC50 [1] [nM] | IC50 (SW620 cells) [nM] | IC50 (PANC08.13 cells) [nM] | IC50 (KRAS-G13D) [nM] | IC50 (KRAS-G12V) [nM] | IC50 (NRAS) [nM] | IC50 (HRAS) [nM] | IC50 (KRAS-WT) [nM] | IC50 (AsPC-1 cells) [nM] | IC50 (MKN-1 cells) [nM] | SMILES
1 | 1.47 | 9.25 | 1.5 | 1.4 | 2.54 | 1.08 | 9400 | 1570 | 0.766 | 4.61 | 3.86 | C#Cc1c(F)ccc2cc(O)cc(-c3nccc4c3sc3nc(OC[C@@]56CCCN5C[C@H](F)C6)nc(N5CCOC[C@@](C)(O)C5)c34)c12 [Ex-135, (S)-4-(8-(8-ethynyl-7-fluoro-3-hydroxy-naphthalen-1-yl)-2-(((2R,7aS)-2-fluoro-tetrahydro-1H-pyr-rolizin-7a(5H)-yl)-methoxy)pyrido [4′,3′:4,5]thieno[2,3-d]pyrimidin-4-yl)-6-methyl-1,4-oxaze-pan-6-ol]
2 | 2.36 | 19.8 | 2.29 |  | 3.13 | 4.53 | 7370 | 1450 | 3.79 | 14.6 | 20.8 | C#Cc1csc2cc3[nH]ncc3c(-c3nccc4c3sc3nc(OC[C@@]56CCCN5C[C@H](F)C6)nc(N5CCOC[C@@](C)(O)C5)c34)c12 [Ex-163, (6S)-4-(8-(5-ethyn-yl-1H-thieno[3,2-f]indazol-4-yl)-2-(((2R,7aS)-2-fluoro-tetrahydro-1H-pyr-rolizin-7a(5H)-yl)-methoxy)pyrido [4′,3′:4,5]thieno[2,3-d]pyrimidin-4-yl)-6-methyl-1,4-oxaze-pan-6-ol]
